Measurements taken from PMC12530843, “Identification of a New Interesting BAG3 Modulator Able to Disrupt Cancer‐Related Pathways” (Chemmedchem, 2025).
Like-named read-outs stand apart in the source and are kept apart here.

Tests used:
[1] = tested on: HeLa cells; assay: MTT cell viability, HeLa; type: cell-based
Experimental: (§1) Human cell lines of lung adenocarcinoma (A549), cervical carcinoma (HeLa), malignant melanoma (A375), breast adenocarcinoma (MCF7), and immortalized human keratinocytes (HaCaT) were cultured in high‐glucose DMEM supplemented with FBS (10%, v/v), glutamine (2 mM L^−1), penicillin (100 U mL^−1), and streptomycin ([…]). Cells were maintained at 37 °C in a humidified 5% CO2 atmosphere and subcultured every 2 days to maintain logarithmic growth. The human cell lines were kindly donated by Prof. Ornella Moltedo, Department of Pharmacy, University of Salerno.^[ [15] ^, [44] ^]
Cell viability was evaluated using a colorimetric assay to measure mitochondrial metabolic activity through the reduction of 3‐[4,5‐dimethylthiazol‐2,5‐diphenyl‐2H‐tetrazolium bromide (MTT) to purple formazan. Stock solutions of SP18 and compounds 1, 2, 5–8 (50 mM in DMSO) were stored at −20 °C in the dark and diluted immediately before addition to the sterile culture medium. The final concentration of DMSO for the tested compounds was 0.1%, which was consistent with the percentage of DMSO used in the negative control. A549 (3.5 × 10³ cells well^−1), HeLa (3.5 × 10³ cells well^−1), A375 (5.0 × 10³ cells well^−1), and MCF7 (3.5 × 10³ cells well^−1) cells were seeded in triplicate in 96‐well plates. After 24 h to allow for attachment, cells were treated with various concentrations of the compounds (10 and 50 µM), using 0.1% (v/v) DMSO as a negative control and 10% (v/v) DMSO as a positive control following treatment, 20 μL of MTT solution (5 mg mL^−1 in PBS) were added to each well, and cells were incubated for 3 h at 37 °C. Formazan crystals were then dissolved in 100 μL of a buffer containing 50% (v/v) N,N‐dimethylformamide and 20% SDS (pH 4.5), and absorbance was measured at 570 nm using a Multiskan GO Microplate Spectrophotometer (Thermo Fisher Scientific, USA).^[ [44] ^] […] IC50 values, defined as the concentration causing 50% inhibition of cell survival, were calculated and compared to DMSO‐treated controls using GraphPad Prism 8.0 software via nonlinear regression. IC50 values for SP18 and compound 2 were also determined in HaCaT cells (5.0 × 10³ cells well^−1) after 48 or 72 h of treatment.^[ [15] ^]

[2] = biological target: T1, BAG3 full length (Homo sapiens, UniProt O95817); assay: SPR binding on full-length BAG3; details: Biacore T200, 25 °C, 1:1 model; for Kd: read-out: BAG3 FULL KD ± SD
T1 construct: purchased Novus Biologicals (Littleton, Colorado)
Experimental: (§2) Recombinant human BAG3 protein (Bcl2‐associated athanogene 3) was obtained from Novus Biologicals (Littleton, Colorado), while the BAG3 domain (BAG3‐BD) was sourced from ARETA International S.r.l. (Gerenzano, Italy). We used (Z)‐ethyl 2‐(5‐(3,4‐dihydroxybenzylidene)‐2,4‐dioxothiazolidin‐3‐yl)acetate (LK4), a BAG3 inhibitor previously identified by our group.^[ [13] ^] SPR spectroscopy was performed using a Biacore T200 optical biosensor with CM5 sensor chips (Cytiva, Marlborough, USA) to assess the affinity of synthesized molecules for BAG3 and BAG‐BD. BAG3 and BAG‐BD were immobilized on CM5 sensor chip using standard amine‐coupling protocol.^[ [15] ^, [42] ^, [43] ^] BAG3 protein (0.067 μg μL^−1 in 10 mM CH3COONa, pH 4.5) was immobilized at a flow rate of 10 μL min^−1, achieving a surface density of 14 kRU, while BAG3‐BD (0.38 μg μL^−1 in 10 mM CH3COONa, pH 4.5) reached a density of 4 kRU. For the experiments, BAG3 and BAG‐BD surfaces, as well as an unmodified reference surface, were prepared for simultaneous analysis. Compounds 1–10 and LK4 were initially dissolved to 10 mM in 100% DMSO, then diluted 1:20 (v/v) in PBS‐P buffer (0.2 M phosphate buffer, 27 mM KCl, 1.37 M NaCl, 0.5% surfactant P20) resulting in a final DMSO concentration of 5.0%. The compounds were injected in a concentration series (1:2 dilution, 10 different concentrations) ranging from 0 to 100 μM, using 96‐well plates. SPR experiments were conducted at 25 °C with a flow rate of 20 μL min^−1, featuring a 90 s association phase followed by a 400 s dissociation phase. Changes in mass, recorded as resonance units (RU), were used to quantify binding responses, while K D values were determined using Biaevaluation software by globally fitting the double‐referenced association and dissociation data to a 1:1 interaction model. (See Figure S43–S56, Supporting Information).

[3] = biological target: T2, BAG3-BD (Homo sapiens, UniProt O95817); assay: SPR binding on BAG3 BAG domain; details: Biacore T200, 25 °C, 1:1 model; for Kd: read-out: BAG3–BD KD ± SD
T2 construct: the BAG3 domain (BAG3‐BD) was sourced from ARETA International S.r.l; (Gerenzano, Italy); purchased ARETA International S.r.l
T2 sequence (O95817 421-498 limits assumed): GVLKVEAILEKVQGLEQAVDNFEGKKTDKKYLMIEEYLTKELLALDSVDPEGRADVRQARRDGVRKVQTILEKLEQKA
Experimental: as §2

[4] = tested on: HaCaT cells; assay: MTT cell viability, HaCaT healthy keratinocytes; type: cell-based, human
Experimental: as §1
Cell viability was evaluated using a colorimetric assay to measure mitochondrial metabolic activity through the reduction of 3‐[4,5‐dimethylthiazol‐2,5‐diphenyl‐2H‐tetrazolium bromide (MTT) to purple formazan. Stock solutions of SP18 and compounds 1, 2, 5–8 (50 mM in DMSO) were stored at −20 °C in the dark and diluted immediately before addition to the sterile culture medium. The final concentration of DMSO for the tested compounds was 0.1%, which was consistent with the percentage of DMSO used in the negative control. […] Formazan crystals were then dissolved in 100 μL of a buffer containing 50% (v/v) N,N‐dimethylformamide and 20% SDS (pH 4.5), and absorbance was measured at 570 nm using a Multiskan GO Microplate Spectrophotometer (Thermo Fisher Scientific, USA).^[ [44] ^] […]

[5] = tested on: HeLa cells; assay: Cell cycle / hypodiploid nuclei by PI flow cytometry; type: cell-based, human
Experimental: Hypodiploid nuclei were analyzed by propidium iodide (PI) staining using flow cytometry. HeLa cells (1 × 10^5 cells well^−1) were cultured in 12‐well plates and allowed to adhere for 24 h. The medium was then refreshed, and cells were treated with SP18 (0.75, 1.5, 3, 6, and 12 µM) for 48 h or compound 2 (10, 30, and 50 µM) for 72 h, with 0.1% (v/v) DMSO as a control. The final concentration of DMSO for the tested compounds was 0.1%, which is consistent with the percentage of DMSO used in the negative control. Following treatment, the culture medium was replaced, and cells were washed twice with PBS before being resuspended in 500 μL of a solution containing 50 mg L^−1 PI, 0.1% (w/v) sodium citrate, and 0.1% Triton X‐100. To include both dead and live cells in the analysis, the culture medium and PBS washes were centrifuged, and the resulting cell pellets were combined with the main cell suspension. Cells were then incubated at 4 °C for 30 min in the dark, and nuclei were analyzed using a Becton Dickinson FACScan flow cytometer (Franklin Lakes, USA) with Cell Quest software. DNA content was recorded, and cellular debris was excluded by adjusting the forward scatter threshold. The percentage of cells in the hypodiploid region (sub‐G0) and those in the G1, S, and G2 phases were calculated.^[ [45] ^] (See Figure S57–S58, Supporting Information).

T1 sequence (O95817 whole entry): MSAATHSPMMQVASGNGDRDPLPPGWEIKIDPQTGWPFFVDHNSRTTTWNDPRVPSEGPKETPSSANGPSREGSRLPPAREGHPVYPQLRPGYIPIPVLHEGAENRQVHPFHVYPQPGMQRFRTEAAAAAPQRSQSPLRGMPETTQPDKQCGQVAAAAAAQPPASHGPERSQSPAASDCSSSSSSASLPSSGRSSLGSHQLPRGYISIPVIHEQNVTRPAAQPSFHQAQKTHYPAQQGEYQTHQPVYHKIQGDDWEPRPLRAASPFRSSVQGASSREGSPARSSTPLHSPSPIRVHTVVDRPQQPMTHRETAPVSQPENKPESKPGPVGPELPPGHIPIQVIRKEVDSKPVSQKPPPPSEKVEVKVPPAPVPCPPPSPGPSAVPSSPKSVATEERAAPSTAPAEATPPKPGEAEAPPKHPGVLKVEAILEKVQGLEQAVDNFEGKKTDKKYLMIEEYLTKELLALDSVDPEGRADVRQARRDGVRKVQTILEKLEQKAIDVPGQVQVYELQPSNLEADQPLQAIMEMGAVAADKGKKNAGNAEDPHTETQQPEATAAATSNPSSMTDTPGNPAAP

Structure (SMILES) | mortality at 50 µM ([1]; Homo sapiens, HeLa, 50 µM, 72 h) | IC50 ([1]; Homo sapiens, HeLa, 72 h of exposure, read-out: IC50 on HeLa cells) | BAG3 FULL KD ± SD [2] | Kd [2] | BAG3–BD KD ± SD [3] | Kd [3] | cytotoxicity on healthy HaCaT cells ([4]; 72 h, up to 70 µM (highest concentration tested)) | effect on cell cycle / hypodiploid nuclei ([5]; 72 h, 10, 30 and 50 µM) | cytotoxicity against HeLa cells (screen) ([1]; 10 and 50 µM, 72 h) | IC50 ([1]; Homo sapiens, HeLa, 48 h of treatment, read-out: IC50 against HeLa) | IC50 ([4]; Homo sapiens, HaCaT, 48 h, seven concentrations, MTT) | effect on cell cycle / hypodiploid nuclei ([5]; 48 h, 0.75 to 12 µM)
O=C(OCc1cn(Cc2ccc3c(c2)C(=O)c2ccccc2C3=O)nn1)c1cccc([N+](=O)[O-])c1 [Compound 2, (1‐((9,10‐Dioxo‐9,10‐dihydroanthracen‐2‐yl)methyl)‐1H‐1,2,3‐triazol‐4‐yl)methyl 3‐nitrobenzoate] | ~70% | 40.8 ± 5.5 µM | low micromolar range | 1.04 ± 0.03 µM | low micromolar range | 0.38 ± 0.05 µM | no significant cytotoxicity | induces hypodiploid nuclei formation in a concentration‐dependent manner | – | – | – | –
O=C(OCc1cn(Cc2ccc(C(=O)c3ccccc3)cc2)nn1)c1cccc([N+](=O)[O-])c1 [SP18] | – | – | – | 36 ± 0.85 µM | – | 43.5 ± 5.09 µM | – | – | significant cytotoxicity | 14.8 ± 1.34 µM | 22.1 ± 0.67 µM | induces hypodiploid nuclei formation in a concentration‐dependent manner and causes an S‐phase block
